Values of other authors as cited in article PMC4460250, “Systems Pharmacology Dissecting Holistic Medicine for Treatment of Complex Diseases: An Example Using Cardiocerebrovascular Diseases Treated by TCM” (Evidence-based Complementary and Alternative Medicine : eCAM, 2015).

Conditions: human; PreHIA data set, value given as fraction; cited from earlier work

| SMILES | HIA(Human Intestinal Absorption) |
| --- | --- |
| N[C@@H](Cc1ccc(O)c(O)c1)C(=O)O [Levodopa] | 0.86 |
| CC#C[C@]1(O)CC[C@H]2[C@@H]3CCC4=CC(=O)CCC4=C3[C@@H](c3ccc(N(C)C)cc3)C[C@@]21C [Mifepristone] | 0.9 |

Same assay, conditions: in vivo; cited from earlier work

| SMILES | HIA(Human Intestinal Absorption) |
| --- | --- |
| C#C[C@]1(O)CC[C@H]2[C@@H]3CCc4cc(O)ccc4[C@H]3CC[C@@]21C [Ethynylestradiol] | 1 |
| CC(O)(P(=O)(O)O)P(=O)(O)O [Etidronate] | 0.05 |
| COc1cc([C@@H]2c3cc4c(cc3[C@@H](O[C@@H]3O[C@@H]5CO[C@@H](C)O[C@H]5[C@H](O)[C@H]3O)[C@H]3COC(=O)[C@H]23)OCO4)cc(OC)c1O [Etoposide] | 0.5 |
| Cc1ccc(-c2ncc(Cl)cc2-c2ccc(S(C)(=O)=O)cc2)cn1 [Etoricoxib] | 1 |
| CC(=O)OCC(CCn1cnc2cnc(N)nc21)COC(C)=O [Famciclovir] | 0.77 |
| NC(N)=Nc1nc(CSCCC(N)=NS(N)(=O)=O)cs1 [Famotidine] | 0.28 |
| O=C(O)Cc1ccccc1Oc1ccc(Cl)cc1Cl [Fenclofenac] | 1 |
| CC(C)(C)NC(=O)[C@H]1CC[C@H]2[C@@H]3CC[C@H]4NC(=O)C=C[C@]4(C)[C@H]3CC[C@]12C [Finasteride] | 1 |
| Cc1onc(-c2c(F)cccc2Cl)c1C(=O)N[C@@H]1C(=O)N2[C@@H]1SC(C)(C)[C@@H]2C(=O)O [Floxacillin] | 0.8 |
| Nc1nc(=O)[nH]cc1F [Flucytosine] | 1 |
| CC(=O)OCC(=O)[C@@]1(O)CC[C@H]2[C@@H]3CCC4=CC(=O)CC[C@]4(C)[C@@]3(F)[C@@H](O)C[C@@]21C [Fludrocortisone_acetate] | 0.95 |
| CCOC(=O)c1ncn2c1CN(C)C(=O)c1cc(F)ccc1-2 [Flumazenil] | 0.95 |
| CC1(C)O[C@@H]2C[C@H]3[C@@H]4C[C@H](F)C5=CC(=O)C=C[C@]5(C)[C@H]4[C@@H](O)C[C@]3(C)[C@]2(C(=O)CO)O1 [Flunisolide] | 0.8 |
| O=C1OC2(c3ccc(O)cc3Oc3cc(O)ccc32)c2ccccc21 [Fluorescein] | 0.99 |
| CNCCC(Oc1ccc(C(F)(F)F)cc1)c1ccccc1 (stereo not drawn) [Fluoxetine] | 0.8 |
| CC(C)C(=O)Nc1ccc([N+](=O)[O-])c(C(F)(F)F)c1 [Flutamide] | 0.9 |
| O=C(O)P(=O)(O)O [Foscarnet] | 0.17 |
| C[C@@H]1O[C@@H]1P(=O)(O)O [Fosfomycin] | 0.31 |
| Nc1nc(O)c2ncn(COC(CO)CO)c2n1 [Ganciclovir] | 0.038 |
| Cc1ccc(C)c(OCCCC(C)(C)C(=O)O)c1 [Gemfibrozil] | 1 |
| C#C[C@]1(O)C=C[C@H]2[C@@H]3CCC4=CC(=O)CC[C@@H]4[C@H]3CC[C@@]21CC [Gestodene] | 1 |
| Cc1ccc(S(=O)(=O)NC(=O)N[C@H]2[C@H]3CC[C@@](C)([C@H]2O)C3(C)C)cc1 [Glibornuride] | 0.98 |
| Cc1ccc(S(=O)(=O)NC(=O)NN2CC3CCCC3C2)cc1 (stereo not drawn) [Gliclazide] | 0.65 |
| CCC1=C(C)CN(C(=O)NCCc2ccc(S(=O)(=O)NC(=O)N[C@H]3CC[C@H](C)CC3)cc2)C1=O [Glimepiride] | 1 |
| COc1ccc2c(c1)C(=O)N(CCc1ccc(S(=O)(=O)NC(=O)NC3CCCCC3)cc1)C(=O)C2(C)C [Gliquidone] | 0.95 |
| COc1ccc(Cl)cc1C(=O)NCCc1ccc(S(=O)(=O)NC(=O)NC2CCCCC2)cc1 [Glyburide] | 1 |
| CN1C2CCCC1CC(NC(=O)c1nn(C)c3ccccc13)C2 (stereo not drawn) [Granisetron] | 1 |

| SMILES | HIA(Human Intestinal Absorption) |
| --- | --- |
| N=C(N)N/N=C/c1c(Cl)cccc1Cl [Guanabenz] | 0.8 |
| NNc1nncc2ccccc12 [Hydralazine] | 1 |
| CCCCCC(=O)O[C@]1(C(C)=O)CC[C@H]2[C@@H]3CCC4=CC(=O)CC[C@]4(C)[C@H]3CC[C@@]21C [Hydroxyprogesterone_caproate] | 0.9 |
| Cc1ccc(NC(=O)c2ccc(CN3CCN(C)CC3)cc2)cc1Nc1nccc(-c2cccnc2)n1 [Imatinib] | 0.98 |
| C[C@@H](O)[C@H]1C(=O)N2C(C(=O)O)=C(SCCN=CN)C[C@H]12 [Imipenem] | 0.05 |
| CN(C)CCCN1c2ccccc2CCc2ccccc21 [Imipramine] | 1 |
| CC(C(=O)O)c1ccc(N2Cc3ccccc3C2=O)cc1 (stereo not drawn) [Indoprofen] | 1 |
| CC(=O)N(CC(O)CO)c1c(I)c(C(=O)NCC(O)CO)c(I)c(C(=O)NCC(O)CO)c1I (stereo not drawn) [Iohexol] | 0.05 |
| CCCCC1=NC2(CCCC2)C(=O)N1Cc1ccc(-c2ccccc2-c2nnn[nH]2)cc1 [Irbesartan] | 1 |
| NNC(=O)c1ccncc1 [Isoniazid] | 0.8 |
| CC1=C(/C=C/C(C)=C/C=C/C(C)=C\C(=O)O)C(C)(C)CCC1 [Isotretinoin] | 0.9 |
| O=C(O)Cc1ccc2c(c1)C(=O)c1ccccc1CO2 [Isoxepac] | 0.98 |
| Cc1cc(NC(=O)C2=C(O)c3ccccc3S(=O)(=O)N2C)no1 [Isoxicam] | 1 |
| CC(CCc1ccccc1)NCC(O)c1ccc(O)c(C(N)=O)c1 (stereo not drawn) [Labetalol] | 0.95 |
| Nc1nnc(-c2cccc(Cl)c2Cl)c(N)n1 [Lamotrigine] | 0.98 |
| Cc1c(OCC(F)(F)F)ccnc1C[S+]([O-])c1nc2ccccc2[nH]1 (stereo not drawn) [Lansoprazole] | 0.85 |
| N#Cc1ccc(C(c2ccc(C#N)cc2)n2cncn2)cc1 [Letrozole] | 1 |
| c1ccc([C@H]2CN3CCSC3=N2)cc1 [Levamisole] | 0.95 |
| CC(C)(C)NC[C@H](O)COc1cccc2c1CCCC2=O [Levobunolol] | 1 |
| CCC[C@@H]1C[C@@H](C(=O)N[C@@H]([C@H]2O[C@H](SC)[C@H](O)[C@@H](O)[C@H]2O)[C@@H](C)O)N(C)C1 [Lincomycin] | 0.28 |
| CCCCc1nc(Cl)c(CO)n1Cc1ccc(-c2ccccc2-c2nn[nH]n2)cc1 [Losartan] | 0.8 |
| OC[C@@H](O)[C@@H](O)[C@H](O)[C@H](O)CO [Mannitol] | 0.16 |
| CNCCCC12CCC(c3ccccc31)c1ccccc12 [Maprotiline] | 0.98 |
| COC(=O)Nc1nc2ccc(C(=O)c3ccccc3)cc2[nH]1 [Mebendazole] | 1 |
| Cc1cccc(Nc2ccccc2C(=O)O)c1C [Mefenamic_acid] | 0.9 |
| Cc1cnc(NC(=O)C2=C(O)c3ccccc3S(=O)(=O)N2C)s1 [Meloxicam] | 0.9 |
| C#C[C@]1(O)CC[C@H]2[C@@H]3CCc4cc(OC)ccc4[C@H]3CC[C@@]21C [Mestranol] | 0.9 |

| SMILES | HIA(Human Intestinal Absorption) |
| --- | --- |
| CN(C)C(=N)N=C(N)N [Metformin] | 0.53 |
| Cn1cc[nH]c1=S [Methimazole] | 0.95 |
| C[C@](N)(Cc1ccc(O)c(O)c1)C(=O)O [Methyldopa] | 0.41 |
| CC[C@@H](CO)NC(=O)[C@@H]1C=C2c3cccc4[nH]cc(c34)C[C@H]2N(C)C1 [Methylergonovine] | 1 |
| C[C@H]1C[C@@H]2[C@H]([C@@H](O)C[C@@]3(C)[C@H]2CC[C@]3(O)C(=O)CO)[C@@]2(C)C=CC(=O)C=C12 [Methylprednisolone] | 0.82 |
| CC(C)(C(=O)c1cccnc1)c1cccnc1 [Metyrapone] | 0.8 |
| CC1(C)S[C@@H]2[C@H](NC(=O)[C@H](NC(=O)N3CCN(S(C)(=O)=O)C3=O)c3ccccc3)C(=O)N2[C@H]1C(=O)O [Mezlocillin] | 0.01 |
| CN1CCN2c3ccccc3Cc3ccccc3C2C1 (stereo not drawn) [Mianserin] | 0.7 |
| COCC(=O)O[C@]1(CCN(C)CCCc2nc3ccccc3[nH]2)CCc2cc(F)ccc2[C@@H]1C(C)C [Mibefradil] | 0.69 |
| Cc1[nH]c(=O)c(C#N)cc1-c1ccncc1 [Milrinone] | 0.83 |
| O=C(NCCN1CCOCC1)c1ccc(Cl)cc1 [Moclobemide] | 0.88 |
| CCOC(=O)Nc1ccc2c(c1)N(C(=O)CCN1CCOCC1)c1ccccc1S2 [Moricizine] | 0.88 |
| COc1nc(C)nc(Cl)c1N=C1NCCN1 [Moxonidine] | 0.88 |
| CC(C)(C)NCC(O)COc1cccc2c1CC(O)C(O)C2 (stereo not drawn) [Nadolol] | 0.57 |
| O=C1CC[C@@]2(O)[C@H]3Cc4ccc(O)c5c4[C@@]2(CCN3CC2CC2)[C@H]1O5 [Naltrexone] | 0.95 |
| CCc1nn(CCCN2CCN(c3cccc(Cl)c3)CC2)c(=O)n1CCOc1ccccc1 [Nefazodone] | 1 |
| CC#Cc1cn([C@@H]2O[C@H](CO)[C@@H](O)[C@@H]2O)c(=O)[nH]c1=O [Netivudine] | 0.28 |
| O=C(NCCO[N+](=O)[O-])c1cccnc1 [Nicorandil] | 1 |
| O=C(O)c1cccnc1 [Nicotinic_acid] | 0.88 |
| CC1(C)NC(=O)N(c2ccc([N+](=O)[O-])c(C(F)(F)F)c2)C1=O [Nilutamide] | 1 |
| O=C1CN(/N=C/c2ccc([N+](=O)[O-])o2)C(=O)N1 [Nitrofurantoin] | 0.95 |
| CNC(=C[N+](=O)[O-])NCCSCc1csc(CN(C)C)n1 [Nizatidine] | 0.9 |
| CNCCC=C1c2ccccc2CCc2ccccc21 [Nortriptyline] | 1 |
| O=C(O)c1cc(/N=N/c2ccc(O)c(C(=O)O)c2)ccc1O [Olsalazine] | 0.24 |
| COc1ccc2[nH]c([S+]([O-])Cc3ncc(C)c(OC)c3C)nc2c1 (stereo not drawn) [Omeprazole] | 0.8 |
